From the supplement of paper PMC10702517
± gives the standard deviation.

Columns and labels:
[1] = chemical recovery into PDMS from spiked human plasma; higher = better extraction; conditions: pooled human plasma, extraction method: PES with PDMS
[2] = chemical recovery by SPE of plasma after PDMS sampling; higher = better extraction; conditions: pooled human plasma, extraction method: HLB SPE of plasma after PES
[3] = chemical recovery from spiked human plasma; higher = better extraction; conditions: pooled human plasma
[4] = extraction method: PES+SPE (3 d PDMS equilibration then HLB SPE)
[5] = extraction method: SPE only (HLB 96-well)
[6] = extraction method: SPE only (HLB 96-well), PES comparison experiment
[7] = extraction method: solvent precipitation (ACN + hexane)
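Wherever chemical recovery by SPE of plasma after PDMS sampling is given: over 400 spiked chemicals quantified by LC-HRMS or GC-HRMS via internal standard calibration, recovery relative to spike mix added to unspiked plasma extract to correct matrix effects.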

| Structure (SMILES) | chemical recovery into PDMS ([1]; equilibration time (d): 1) [%] | chemical recovery into PDMS ([1]; equilibration time (d): 3) [%] | chemical recovery into PDMS ([1]; equilibration time (d): 6) [%] | chemical recovery by SPE of plasma ([2]; equilibration time (d): 1) [%] | chemical recovery by SPE of plasma ([2]; equilibration time (d): 3) [%] | chemical recovery by SPE of plasma ([2]; equilibration time (d): 6) [%] | chemical recovery [3, 4] [%] | chemical recovery [3, 5] [%] | chemical recovery [3, 6] [%] | chemical recovery [3, 7] [%] |
| --- | --- | --- | --- | --- | --- | --- | --- | --- | --- | --- |
| CC(C)NCC(O)COc1cccc2ccccc12 (configuration not stated) [Propranolol] | 0.322 ± 0.19 | 0.522 ± 0.36 | 0.438 ± 0.19 | 8.66 ± 0.64 | 9.06 ± 1.1 | 7.31 ± 0.57 | 7.98 ± 1.1 | 45.4 ± 2.9 | 50 ± 7 | 71.9 ± 3.2 |
| CC(C)(C#N)c1cc(Cn2cncn2)cc(C(C)(C)C#N)c1 [Anastrozole] | 34.8 ± 2.8 | 39.8 ± 1.5 | 41.8 ± 2.5 | 14.8 ± 1.9 | 9.48 ± 1.3 | 4.8 ± 0.57 | 51.4 ± 5.5 | 44.4 ± 1.8 | 47.9 ± 3.9 | 69.1 ± 2.4 |
| c1ccc(-c2ccccc2-c2ccccc2)cc1 [o-Terphenyl] | 81.9 ± 26 | 81.5 ± 8.2 | 88.8 ± 18 | 2.44 ± 1.2 | 2.46 ± 0.63 | 2.62 ± 0.75 | – | 12.9 ± 2.8 | 19.9 ± 5.7 | – |
| O=P1(NCCCl)OCCCN1CCCl (configuration not stated) [Ifosfamide] | 3.64 ± 0.32 | 6.16 ± 1.5 | 6.9 ± 1.5 | 54.9 ± 6.7 | 56.1 ± 4.8 | 47.3 ± 4.7 | 46.6 ± 3.5 | 39.4 ± 3.3 | 55.9 ± 6.7 | 71.7 ± 1.5 |
| COC[P+](c1ccccc1)(c1ccccc1)c1ccccc1 [(Methoxymethyl)triphenylphosphonium] | – | 0.00031 ± 0.0019 | 0.00283 ± 0.0035 | 50.8 ± 5.7 | 50.4 ± 4.2 | 48.9 ± 5.7 | 40.1 ± 4.1 | 36.1 ± 3.5 | 48.7 ± 4.5 | 71.1 ± 3.3 |
| c1ccc(-c2ccc(C(c3ccccc3)n3ccnc3)cc2)cc1 (configuration not stated) [Bifonazol] | 38.6 ± 3.1 | 38.5 ± 4.5 | 35.7 ± 4.3 | 0.932 ± 0.2 | 0.479 ± 0.14 | 0.0513 ± 0.051 | – | – | 46.6 ± 10 | – |
| CC(C)C1(C)N=C(c2ncccc2C(=O)O)NC1=O (configuration not stated) [Imazapyr] | – | – | 0.0849 ± 0.048 | 49.5 ± 5.4 | 53.1 ± 3.2 | 49.2 ± 2.4 | 44.4 ± 2.9 | 44.7 ± 9.6 | 52.5 ± 4 | 67.7 ± 5.8 |
| O=P(OC(CCl)CCl)(OC(CCl)CCl)OC(CCl)CCl [TDCPP] | 35.2 ± 3 | 37.4 ± 4.4 | 35.8 ± 3 | 4.16 ± 3.7 | 4.02 ± 4.5 | 2.14 ± 3.7 | – | 46.5 ± 0.97 | 50.5 ± 5.6 | – |
| CC(Cc1ccc(C(C)(C)C)cc1)CN1CCCCC1 (configuration not stated) [Fenpropidin] | – | 0.0302 ± 0.026 | – | 0.126 ± 0.086 | 0.0736 ± 0.023 | 0.0409 ± 0.011 | – | – | 44.5 ± 7.7 | 105 ± 9.7 |
| CCCCC(=O)O[C@]1(C(=O)CO)[C@@H](C)C[C@H]2[C@@H]3CCC4=CC(=O)C=C[C@]4(C)[C@@]3(F)[C@@H](O)C[C@@]21C [Betamethasone-17-valerate] | 12.9 ± 1.3 | 18.8 ± 1.3 | 20.1 ± 1.2 | – | 26.8 ± 4.2 | 19.1 ± 4.2 | – | – | 41.7 ± 7.8 | – |
| CCNS(=O)(=O)c1ccccc1C [N-Ethyl-o-toluenesulfonamide] | 23.5 ± 1.3 | 23.2 ± 2.6 | 26.3 ± 2.6 | 19.8 ± 2.8 | 25.7 ± 2.5 | 18.8 ± 3 | 52.7 ± 7.9 | 46.9 ± 1.4 | 52.6 ± 6.1 | 68.2 ± 2.2 |
| CN1CCN(C2=Nc3cc(Cl)ccc3Nc3ccccc32)CC1 [Clozapine] | 0.000645 ± 0.0011 | – | – | 1.19 ± 0.08 | 1.11 ± 0.26 | 0.544 ± 0.065 | 0.74 ± 0.14 | 39.1 ± 3.5 | 27.7 ± 11 | 68.3 ± 3.6 |
| c1ccc2c(c1)-c1cccc3cccc-2c13 [Fluoranthene] | – | 106 ± 24 | – | – | – | 3.75 ± 6.5 | 79.1 ± 25 | 6.27 ± 1.4 | – | 69 ± 3.7 |
| Clc1cc(-c2cc(Cl)c(Cl)c(Cl)c2Cl)c(Cl)c(Cl)c1Cl [PCB194] | – | 54.4 ± 6.3 | 63.4 ± 5.4 | 3.6 ± 2.3 | 5.05 ± 1.1 | 2.4 ± 0.65 | 38.3 ± 2.4 | 0.915 ± 0.53 | – | 2.72 ± 0.18 |
| CCCOC(=O)c1ccc(O)cc1 [Propylparaben] | 11.6 ± 0.24 | 13.2 ± 1.9 | 14.8 ± 2 | 40.3 ± 8.2 | 43 ± 3.8 | 34 ± 0.68 | 56.4 ± 4.7 | 43.1 ± 2.1 | 67.9 ± 7.4 | 70.6 ± 3.7 |
| C[C@]12C=CC(=O)C=C1CC[C@@H]1[C@@H]2C(=O)C[C@@]2(C)[C@H]1CC[C@]2(O)C(=O)CO [Prednisone] | – | 0.176 ± 0.18 | 0.265 ± 0.091 | 41.6 ± 4.3 | 43.7 ± 5.1 | 41.1 ± 2.4 | – | – | 45.5 ± 5.8 | – |
| Clc1cc(Cl)c(-c2cc(Cl)c(Cl)cc2Cl)cc1Cl [PCB153] | 55.1 ± 6.8 | 86.4 ± 3.6 | 82.2 ± 2.6 | 4.72 ± 3 | 2.08 ± 0.28 | 1.44 ± 0.58 | 62.9 ± 9 | 1.64 ± 0.63 | 10.3 ± 2.5 | 77.6 ± 3.5 |
| CC(=O)N1CCN(c2ccc(OC[C@H]3CO[C@](Cn4ccnc4)(c4ccc(Cl)cc4Cl)O3)cc2)CC1 (racemic) [Ketoconazole] | 0.0493 ± 0.043 | 0.0293 ± 0.027 | 0.0825 ± 0.0051 | 17.2 ± 0.9 | 12.8 ± 1.7 | 10.5 ± 1.8 | 7.76 ± 0.64 | 42.6 ± 2.9 | 39.6 ± 10 | – |
| O=C1NCCN1Cc1ccc(Cl)nc1 [Imidacloprid-urea] | 6.18 ± 0.38 | 10.2 ± 1.7 | 11.7 ± 2 | 50.1 ± 6.5 | 50.2 ± 4.6 | 39.3 ± 1.7 | 51.2 ± 4.7 | 43.2 ± 9.1 | 51.1 ± 4.4 | 77.1 ± 3.8 |
| Nc1cnn(-c2ccccc2)c(=O)c1Cl [Chloridazon] | 4.58 ± 0.31 | 7.42 ± 1.7 | 8.14 ± 1.6 | 53.7 ± 8.1 | 57.1 ± 3.2 | 51.8 ± 4.5 | 44.6 ± 2.8 | 37.3 ± 3 | 54.9 ± 6.3 | 73 ± 2.7 |
| CC/C(=N\OC/C=C/Cl)C1=C(O)CC(C2CCOCC2)CC1=O (configuration not stated) [Tepraloxydim] | 0.0964 ± 0.084 | 0.473 ± 0.3 | 0.369 ± 0.063 | 47.5 ± 6.9 | 48.3 ± 2.9 | 41.9 ± 3.2 | 45.7 ± 5 | 40.5 ± 2.5 | 51.8 ± 3 | 73.8 ± 3.1 |
| CCCOP(=O)(OCCC)OCCC [Tripropyl phosphate] | 29.8 ± 6.3 | 35.3 ± 6.6 | 33.8 ± 2.4 | 1.52 ± 1 | 1.74 ± 0.42 | 1.1 ± 0.16 | – | 35 ± 7.1 | 26.4 ± 7.2 | – |
| NC(=O)c1ccc(N)cc1 [4-Aminobenzamide] | 0.339 ± 0.59 | 0.844 ± 0.17 | 0.572 ± 0.1 | – | 5.92 ± 1.7 | 10 ± 3.9 | 3.92 ± 0.79 | 3.28 ± 2.1 | – | 98.6 ± 21 |
| ClC1=C(Cl)C2(Cl)C3C4C=CC(C4)C3C1(Cl)C2(Cl)Cl (configuration not stated) [Aldrin] | 84.1 ± 2.4 | 90.4 ± 12 | 99.8 ± 12 | 1.3 ± 0.86 | 1.34 ± 0.14 | 1.4 ± 0.28 | – | 1.53 ± 0.48 | 18.4 ± 4 | – |
